Source: PMC6112376, “Comprehensive Analyses and Prioritization of Tox21 10K Chemicals Affecting Mitochondrial Function by in-Depth Mechanistic Studies” (Environmental Health Perspectives, 2018)
Read-outs that look alike come from different tables or passages of the source.

Assays:
hNSC = test: MMP assay in human neural stem cells (hNSC); type: cell-based; details: Homo sapiens, Neural stem cell, read-out: hNSC IC50 (MMP)
HepG2 cells [1] = test: ROS-Glo hydrogen peroxide (ROS) assay; type: cell-based, human
HepG2 cells [2] = test: Intracellular ATP content (cell viability) assay; type: cell-based, human; details: Homo sapiens
[3] = system: Nrf2/ARE (ARE-bla HepG2 cells); test: ARE β-lactamase reporter gene assay; type: cell-based, human; details: 16 h incubation, mean±SD of three experiments
[4] = system: isolated rat liver mitochondria; test: Oxygen consumption, Clark-type oxygen electrode; type: biochemical
[5] = system: mitochondrial respiratory chain complex I; type: biochemical, rat
[6] = biological target: T1, mitochondrial respiratory chain complex II (Rattus norvegicus, UniProt P21913+Q641Z9+Q6PCT8+Q920L2); test: Respiratory chain complex II activity; type: biochemical; details: tested up to 100μM
T1 construct: Submitochondrial particles were prepared by subjecting the intact rat mitochondria, isolated as described above, to three successive freeze–thaw cycles; from tissue; host or cells: rat liver mitochondria (submitochondrial particles)
T1 sequence (Q920L2 35-656): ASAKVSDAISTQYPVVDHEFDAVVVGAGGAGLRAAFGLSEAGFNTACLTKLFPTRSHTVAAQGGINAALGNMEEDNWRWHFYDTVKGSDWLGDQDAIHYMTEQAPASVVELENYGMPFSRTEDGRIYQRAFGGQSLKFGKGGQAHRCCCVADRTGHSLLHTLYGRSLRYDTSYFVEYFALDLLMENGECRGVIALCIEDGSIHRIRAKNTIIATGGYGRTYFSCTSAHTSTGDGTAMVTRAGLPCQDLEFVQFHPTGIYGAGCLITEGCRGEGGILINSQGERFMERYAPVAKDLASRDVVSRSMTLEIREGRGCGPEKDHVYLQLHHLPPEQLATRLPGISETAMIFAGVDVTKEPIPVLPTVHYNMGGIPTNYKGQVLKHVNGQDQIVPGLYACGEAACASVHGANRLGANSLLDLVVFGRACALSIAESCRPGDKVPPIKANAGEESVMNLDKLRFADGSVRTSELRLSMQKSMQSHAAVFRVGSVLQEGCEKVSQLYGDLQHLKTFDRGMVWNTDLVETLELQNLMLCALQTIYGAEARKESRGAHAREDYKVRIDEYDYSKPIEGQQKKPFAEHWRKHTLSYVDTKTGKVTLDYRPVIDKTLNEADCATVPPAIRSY
T1 sequence (P21913 31-282): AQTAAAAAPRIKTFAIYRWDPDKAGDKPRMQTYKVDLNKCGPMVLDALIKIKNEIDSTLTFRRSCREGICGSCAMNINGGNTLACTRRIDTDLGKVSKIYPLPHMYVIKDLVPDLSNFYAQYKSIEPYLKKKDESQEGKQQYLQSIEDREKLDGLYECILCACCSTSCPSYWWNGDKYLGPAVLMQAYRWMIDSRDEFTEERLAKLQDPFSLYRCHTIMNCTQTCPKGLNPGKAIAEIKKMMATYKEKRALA
T1 sequence (Q641Z9 1-169): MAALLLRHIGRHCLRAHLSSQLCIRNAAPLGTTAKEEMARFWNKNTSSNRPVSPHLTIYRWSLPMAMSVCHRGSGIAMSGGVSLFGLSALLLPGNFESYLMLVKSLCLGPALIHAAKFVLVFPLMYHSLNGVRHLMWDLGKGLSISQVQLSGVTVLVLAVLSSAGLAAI
T1 sequence (Q6PCT8 57-159): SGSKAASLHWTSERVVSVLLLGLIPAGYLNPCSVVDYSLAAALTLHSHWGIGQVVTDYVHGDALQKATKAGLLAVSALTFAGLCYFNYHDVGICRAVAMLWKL

[7] = system: mitochondrial respiratory chain complex III; type: biochemical, rat
[8] = system: mitochondrial respiratory chain complex IV; type: biochemical, rat
[9] = system: mitochondrial respiratory chain complex V; type: biochemical, rat
[10] = system: HeLa cells expressing YFP-Parkin; test: Parkin translocation assay; type: cell-based, human
rat primary hepatocytes [11] = system: rat primary hepatocytes
HepG2 cells [12] = details: cited from earlier work
[13] = system: Caenorhabditis elegans (Bristol N2); details: Bristol N2 (wild type), Caenorhabditis elegans, in vivo
HepG2 cells [14] = test: cells; details: Homo sapiens; for Emax: HepG2, read-out: MMP assays efficacy (%) HepG2
rat primary hepatocytes [15] = test: MMP assay in rat primary hepatocytes; details: for IC50: Rattus norvegicus, Hepatocyte
[16] = system: Caenorhabditis elegans (Bristol N2); test: C. elegans larval development and growth assay
[17] = system: p53 (p53-bla HCT-116 cells); test: p53 β-lactamase reporter gene assay; type: cell-based, human; details: 16 h incubation; mean±SD of three experiments
[18] = system: Caenorhabditis elegans strain PE255; test: In vivo C. elegans ATP status assay
[19] = HepG2, 1 h, read-out: HepG2 IC50 Galactose (MMP)
[20] = HepG2, 1 h, read-out: HepG2 IC50 Glucose (MMP)
[21] = 1 h, read-out: Rat hepatocytes IC50 (MMP)
[22] = read-out: MMP assays IC50 (µM) Rat Hepatocytes

C=C(c1ccc(C(=O)O)cc1)c1cc2c(cc1C)C(C)(C)CCC2(C)C [Bexarotene, reference compound]
IC50 (hNSC; 1 h): 22.3 µM | ROS (HepG2) EC50 (HepG2 cells [1]): Inactive | IC50 (HepG2 cells [2]; HepG2, 40 h, read-out: ATP (HepG2, galactose) IC50): 63.2 µM | IC50 (HepG2 cells [2]; HepG2, 40 h, read-out: ATP (HepG2, glucose) IC50): 63.2 µM | EC50 ([3]; Homo sapiens, HepG2, read-out: ARE (HepG2) EC50): 11.5 ± 0.75 µM | Potential Mechanism [4]: Uncoupler + inhibitor | I-ADP, % of control (O2 consumption rate) ([4]; 0.8 µM): 92 (45.5) % of control | I-sub, % of control (O2 consumption rate) ([4]; 0.8 µM): 108 (17.4) % of control | II-ADP, % of control (O2 consumption rate) ([4]; 0.8 µM): 84 (65.0) % of control | II-sub, % of control (O2 consumption rate) ([4]; 0.8 µM): 93 (28.5) % of control | I-ADP, % of control (O2 consumption rate) ([4]; 4 µM): 86 (42.6) % of control | II-ADP, % of control (O2 consumption rate) ([4]; 4 µM): 81 (62.5) % of control | II-sub, % of control (O2 consumption rate) ([4]; 4 µM): 97 (29.8) % of control | I-ADP, % of control (O2 consumption rate) ([4]; 20 µM): 61 (29.8) % of control | I-sub, % of control (O2 consumption rate) ([4]; 20 µM): 155 (25.0) % of control | II-ADP, % of control (O2 consumption rate) ([4]; 20 µM): 39 (30.1) % of control | II-sub, % of control (O2 consumption rate) ([4]; 20 µM): 107 (32.7) % of control | I-ADP, % of control (O2 consumption rate) ([4]; 100 µM): 5 (2.8) % of control | I-sub, % of control (O2 consumption rate) ([4]; 100 µM): 36 (4.9) % of control | II-ADP, % of control (O2 consumption rate) ([4]; 100 µM): 6 (3.8) % of control | II-sub, % of control (O2 consumption rate) ([4]; 100 µM): 24 (5.1) % of control | Complex I % inhibition (activity call) [5]: Inactive | Complex II % inhibition (activity call) [6]: Inactive | Complex III % inhibition (activity call) [7]: Inactive | Complex IV % inhibition (activity call) [8]: Inactive | Complex V % inhibition (activity call) [9]: Inactive | Parkin recruitment [10]: Inactive | MMP assays efficacy (%) Rat Hepatocytes (rat primary hepatocytes [11]): -112±7% | Rat hepatocytes (efficacy) (MMP) (rat primary hepatocytes [11]): 39.9±5.09 ( −93.8±8.55 ) % | MMP assays efficacy (%) qHTS-HepG2 (HepG2 cells [12]): -124±6% | IC50 (HepG2 cells [12]; read-out: MMP assays IC50 (µM) qHTS-HepG2): 16.5 ± 3.95 µM | LEC (lowest effect concentration), larval growth assay [13]: ≤ 10 µM | IC50 (HepG2 cells [14]; [19]): 50.2 µM | IC50 (HepG2 cells [14]; [20]): 50 µM | Emax (HepG2 cells [14]): 106% | IC50 (rat primary hepatocytes [15]; [21]): 39.9 µM | IC50 (rat primary hepatocytes [15]; [22]): 9.08 ± 1.16 µM | minimal effective concentration ([16]; Caenorhabditis elegans, read-out: LEC EXT: lowest effect concentration for extinction, a measure of nematode size): 10 µM

COc1cc2c(cc1OC)-c1cc3ccc(OC)c(OC)c3c[n+]1CC2 [Palmatine chloride hydrate]
IC50 (hNSC; 1 h treatment, fresh re-sourced stocks, mean±SD of three experiments): 34.1 ± 11.2 µM | ROS (HepG2) EC50 (HepG2 cells [1]; 2 h treatment, mean±SD of three experiments): Inactive | IC50 (HepG2 cells [2]; HepG2, 5 mM glucose, 40 h treatment, mean±SD of three experiments, read-out: ATP (HepG2, glucose) IC50): 19 ± 9.49 µM | IC50 (HepG2 cells [2]; HepG2, 10 mM galactose, 40 h treatment, mean±SD of three experiments, read-out: ATP (HepG2, galactose) IC50): 27.1 ± 8.93 µM | p53 (HCT-116) EC50 [17]: Inactive | ARE (HepG2) EC50 [3]: Inactive | I-ADP, % of control (O2 consumption rate) ([4]; 0.8 µM, glutamate/malate driven state 3 respiration, isolated rat liver mitochondria): 91 (32.3) % of control | I-sub, % of control (O2 consumption rate) ([4]; 0.8 µM, glutamate/malate driven state 4 respiration, isolated rat liver mitochondria): 114 (10.9) % of control | II-ADP, % of control (O2 consumption rate) ([4]; 0.8 µM, succinate-driven state 3 respiration, isolated rat liver mitochondria): 96 (51.6) % of control | II-sub, % of control (O2 consumption rate) ([4]; 0.8 µM, succinate-driven state 4 respiration, isolated rat liver mitochondria): 119 (19.5) % of control | I-ADP, % of control (O2 consumption rate) ([4]; 4 µM, glutamate/malate driven state 3 respiration, isolated rat liver mitochondria): 76 (27.3) % of control | I-sub, % of control (O2 consumption rate) ([4]; 4 µM, glutamate/malate driven state 4 respiration, isolated rat liver mitochondria): 105 (10.1) % of control | II-ADP, % of control (O2 consumption rate) ([4]; 4 µM, succinate-driven state 3 respiration, isolated rat liver mitochondria): 89 (47.6) % of control | II-sub, % of control (O2 consumption rate) ([4]; 4 µM, succinate-driven state 4 respiration, isolated rat liver mitochondria): 103 (16.9) % of control | I-ADP, % of control (O2 consumption rate) ([4]; 20 µM, glutamate/malate driven state 3 respiration, isolated rat liver mitochondria): 70 (25.0) % of control | I-sub, % of control (O2 consumption rate) ([4]; 20 µM, glutamate/malate driven state 4 respiration, isolated rat liver mitochondria): 114 (10.9) % of control | II-ADP, % of control (O2 consumption rate) ([4]; 20 µM, succinate-driven state 3 respiration, isolated rat liver mitochondria): 85 (45.5) % of control | II-sub, % of control (O2 consumption rate) ([4]; 20 µM, succinate-driven state 4 respiration, isolated rat liver mitochondria): 116 (19.1) % of control | I-ADP, % of control (O2 consumption rate) ([4]; 100 µM, glutamate/malate driven state 3 respiration, isolated rat liver mitochondria): 77 (35.3) % of control | I-sub, % of control (O2 consumption rate) ([4]; 100 µM, glutamate/malate driven state 4 respiration, isolated rat liver mitochondria): 172 (26.6) % of control | II-ADP, % of control (O2 consumption rate) ([4]; 100 µM, succinate-driven state 3 respiration, isolated rat liver mitochondria): 56 (40.4) % of control | II-sub, % of control (O2 consumption rate) ([4]; 100 µM, succinate-driven state 4 respiration, isolated rat liver mitochondria): 114 (35.8) % of control | Potential Mechanism ([4]; mitochondrial respiration in isolated rat liver mitochondria, Clark type oxygen electrode, over tested concentrations): Uncoupler + Inhibitor | Complex I % inhibition ([5]; at 100μM): 12.3±3.05 at 100μM % | Complex II % inhibition (activity call) [6]: Inactive | Complex III % inhibition (activity call) [7]: Inactive | Complex IV % inhibition (activity call) [8]: Inactive | Complex V % inhibition (activity call) [9]: Inactive | Parkin recruitment ([10]; HeLa cells stably expressing YFP-Parkin, treated for 2 h): Inactive | MMP assays efficacy (%) qHTS-HepG2 (HepG2 cells [12]): -99±8% | IC50 (HepG2 cells [12]; read-out: MMP assays IC50 (µM), qHTS-HepG2): 22.7 ± 5.23 µM | IC50 (HepG2 cells [14]; [19]): 70.6 ± 4.79 µM | IC50 (HepG2 cells [14]; [20]): 55.7 ± 17.9 µM | IC50 (HepG2 cells [14]; HepG2, read-out: MMP assays IC50 (µM) HepG2): 12.6 µM | Emax (HepG2 cells [14]): 86% | LUM: mean difference in luminescence (ATP content) relative to plate controls ([18]; 0.5 µM): 1.192 | LUM: mean difference in luminescence (ATP content) relative to plate controls ([18]; 1 µM): -0.05262 | LUM: mean difference in luminescence (ATP content) relative to plate controls ([18]; 5 µM): 0.04332 | LUM: mean difference in luminescence (ATP content) relative to plate controls ([18]; 10 µM): -0.02063 | LUM: mean difference in luminescence (ATP content) relative to plate controls ([18]; 25 µM): -0.0762 | LUM: mean difference in luminescence (ATP content) relative to plate controls ([18]; 50 µM): 0.2026 | LUM: mean difference in luminescence (ATP content) relative to plate controls ([18]; 75 µM): 0.01325 | LUM: mean difference in luminescence (ATP content) relative to plate controls ([18]; 100 µM): 0.2556 | Rat hepatocytes (efficacy) (MMP) (rat primary hepatocytes [15]; % of positive control, mean±SD of three experiments): −101±2.09% | IC50 (rat primary hepatocytes [15]; [21]): 6.74 ± 2.89 µM | IC50 (rat primary hepatocytes [15]; [22]): 1.37 ± 0.7 µM | MMP assays efficacy (%) Rat Hepatocytes (rat primary hepatocytes [15]; rat hepatocytes, mean ± SD of three experiments): -72±21% | EXT: mean difference in nematode size relative to plate controls ([16]; 0.5 µM): -0.01207 | EXT: mean difference in nematode size relative to plate controls ([16]; 1 µM): -0.07266 | EXT: mean difference in nematode size relative to plate controls ([16]; 5 µM): -0.05419 | EXT: mean difference in nematode size relative to plate controls ([16]; 10 µM): -0.03134 | EXT: mean difference in nematode size relative to plate controls ([16]; 25 µM): 0.08842 | EXT: mean difference in nematode size relative to plate controls ([16]; 50 µM): 0.1943
